Assay results from patent publication US4066768A, “Derivatives of 1-phenoxy-3-amino-propan-2-ol” (Cassella Farbwerke Mainkur Aktiengesellschaft, priority 1973, dated 1978).

Experiments:
[1] = molecular target: T1, β1-receptors of the heart (Canis lupus familiaris, UniProt P79148); assay: Inhibition of isoproterenol-induced increase in rate of pressure rise (Dp/dt max.) in left ventricle of anaesthetised dogs (β1-receptor inhibition); format: in vivo, mongrel dogs; conditions: for ED50: dog, iv, read-out: β1-receptor inhibition ED 50; for Relative β1-receptor inhibition (reference substance = 100): relative ED 50, lower = more active; for Relative β1-receptor inhibition (reference substance = 100) / Quotient: ED 50 of β2-receptor inhibition / ED 50 of β1-receptor inhibition / Relative quotient, on basis of reference substance = 1: dogs; for Quotient: ED 50 of β2-receptor inhibition / ED 50 of β1-receptor inhibition: cardioselectivity, higher = better; for Relative quotient, on basis of reference substance = 1: relative cardioselectivity factor
T1 construct: from tissue; host or cells: heart (left ventricle) of anaesthetised mongrel dogs, in vivo
Protocol: (§1) The blocking action of the compounds according to the invention on the β1-receptors of the heart and on the β2-receptors of the cardiovascular system was investigated as follows: the blood pressure in the left-hand ventricle was measured on mongrel dogs of both sexes under an anaesthesia by Chloralose-urethane-morphine and the pressure signal was continuously differentiated by means of an analogue computer (BRUSH Instruments, Cleveland/Ohio) and, inter alia, the rate of pressure increase (Dp/dt) was recorded. In addition, the perfusion of a femoral artery was measured by means of an electromagnetic flow-meter (Model […] of Messrs. Statham) and the perfusion was recorded in ml/minute. […] DUNLOP and […]: Selective blockade of adrenoceptive beta-receptors in the heart. Brit. J. Pharmac. Chemother. (1968) 32, 201-218). […] The higher this quotient is, the better the cardioselective action.

[2] = molecular target: T2, β2-receptors of the cardiovascular system (Canis lupus familiaris, UniProt P54833); assay: Inhibition of isoproterenol-induced alteration of peripheral (femoral artery) perfusion in anaesthetised dogs (β2-receptor inhibition); format: in vivo, mongrel dogs; conditions: for ED50: dog, iv, read-out: β2-receptor inhibition ED 50; for Relative β2-receptor inhibition (reference substance = 100): relative ED 50, dogs
T2 construct: from tissue; host or cells: femoral artery vascular bed of anaesthetised mongrel dogs, in vivo
Protocol: as §1

[3] = system: cardiac β1-receptors; assay: Inhibition of isoproterenol-induced increase in heart rate in anaesthetized guinea pigs (β1-receptor inhibition); format: in vivo; conditions: for β1-receptor inhibition, parameter: heart rate response to isoproterenol: ED-50: i.v., guinea pigs anaesthetized with urethane, isoproterenol 0.5 gamma/animal
Protocol: The isoproterenol-induced increase in heart rate in anaesthetized animals represents mainly the response of the cardiac β1-receptors. The dose of the antagonists (mg/kg i.v.) which inhibits this response of isoproterenol (0.5 gamma/animal) in guinea pigs, anaesthetized with urethane, by 50% : ED-50 was determined.

[4] = molecular target: T3, tracheal β2-receptors (Cavia porcellus, UniProt Q8K4Z4); assay: Inhibition of isoproterenol-induced relaxation of contracted isolated tracheal chain (β2-receptor inhibition); set-up: species or system guinea pigs
T3 construct: isolated tracheal chain of guinea pigs; from tissue; host or cells: isolated guinea pig tracheal chain
Protocol: The isoproterenol-induced relaxation of contracted isolated tracheal chain of guinea pigs represents the response of the tracheal β2-receptors. The bath concentrations of the antagonists which reduce the isoproterenol effects by 50% were determined: ED-50 : g/ml bath.

T2 sequence (P54833 whole entry, the tested form may be a part): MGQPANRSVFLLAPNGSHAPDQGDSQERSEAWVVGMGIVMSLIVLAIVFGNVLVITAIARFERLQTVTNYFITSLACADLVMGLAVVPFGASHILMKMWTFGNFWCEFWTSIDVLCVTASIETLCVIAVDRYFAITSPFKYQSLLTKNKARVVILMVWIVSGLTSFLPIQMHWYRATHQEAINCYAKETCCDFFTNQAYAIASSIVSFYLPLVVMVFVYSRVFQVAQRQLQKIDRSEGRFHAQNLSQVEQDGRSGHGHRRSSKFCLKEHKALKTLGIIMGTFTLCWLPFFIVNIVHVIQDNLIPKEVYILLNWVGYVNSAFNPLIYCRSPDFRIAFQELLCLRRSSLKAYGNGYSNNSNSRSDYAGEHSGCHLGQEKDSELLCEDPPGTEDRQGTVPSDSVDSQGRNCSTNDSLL
T1 sequence (P79148 whole entry): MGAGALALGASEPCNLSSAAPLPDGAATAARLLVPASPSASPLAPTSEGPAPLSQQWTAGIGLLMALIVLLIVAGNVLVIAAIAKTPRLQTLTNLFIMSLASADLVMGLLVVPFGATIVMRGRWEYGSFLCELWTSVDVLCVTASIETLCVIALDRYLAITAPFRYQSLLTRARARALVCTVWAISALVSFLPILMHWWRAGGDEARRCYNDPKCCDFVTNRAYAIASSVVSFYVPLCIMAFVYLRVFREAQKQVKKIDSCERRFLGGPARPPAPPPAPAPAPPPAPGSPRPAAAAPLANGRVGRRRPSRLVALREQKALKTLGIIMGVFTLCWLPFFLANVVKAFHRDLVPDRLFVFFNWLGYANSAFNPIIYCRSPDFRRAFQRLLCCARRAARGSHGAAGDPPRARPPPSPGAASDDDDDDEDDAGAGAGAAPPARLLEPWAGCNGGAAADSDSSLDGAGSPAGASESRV
T3 sequence (Q8K4Z4 whole entry): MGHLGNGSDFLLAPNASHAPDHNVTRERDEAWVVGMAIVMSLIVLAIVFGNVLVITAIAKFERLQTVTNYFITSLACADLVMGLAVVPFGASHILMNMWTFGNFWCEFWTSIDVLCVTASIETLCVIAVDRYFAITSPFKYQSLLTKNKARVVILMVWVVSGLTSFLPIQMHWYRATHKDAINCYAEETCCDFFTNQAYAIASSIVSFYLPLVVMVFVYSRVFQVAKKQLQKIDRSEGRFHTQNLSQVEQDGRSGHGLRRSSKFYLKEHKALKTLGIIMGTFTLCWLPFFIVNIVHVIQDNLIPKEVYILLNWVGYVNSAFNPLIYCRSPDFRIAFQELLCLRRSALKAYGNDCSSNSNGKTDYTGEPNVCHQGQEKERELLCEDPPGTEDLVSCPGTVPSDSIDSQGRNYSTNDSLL

| IC50 ([4]; bath concentration reducing isoproterenol effects by 50%, guinea pig trachea, read-out: β2-receptor inhibition, parameter: isolated tracheal chain: ED-50 (converted)) [µM] | Relative β2-receptor inhibition (reference substance = 100) ([4]; isolated tracheal chain, guinea pigs) | SMILES | ED50 [1] [mg/kg] | Relative β1-receptor inhibition (reference substance = 100) [1] | Quotient: ED 50 of β2-receptor inhibition / ED 50 of β1-receptor inhibition [1] | Relative quotient, on basis of reference substance = 1 [1] | ED50 [2] [mg/kg] | Relative β2-receptor inhibition (reference substance = 100) [2] | β1-receptor inhibition, parameter: heart rate response to isoproterenol: ED-50 [3] [mg/kg] | Relative β1-receptor inhibition (reference substance = 100) ([3]; heart rate, guinea pigs) |
| --- | --- | --- | --- | --- | --- | --- | --- | --- | --- | --- |
|  |  | C=CCNC(=O)Nc1ccc(OCC(O)CNC(C)CC(O)c2cnc(C)nc2C)cc1 (centres unmarked) [1-(p-Allylureido-phenoxy)-3-(1-[2,4-dimethyl-pyrimidyl-5]-1-hydroxy-butyl(3)-amino)-propan-2-ol] | 0.019 | 7.9 |  |  |  |  |  |  |
|  |  | Cc1ncc(C(O)CC(C)NCC(O)COc2ccc(NC(=O)NC3CCCCC3)cc2)c(C)n1 (centres unmarked) [1-(p-Cyclohexylureido-phenoxy)-3-(1-[2,4-dimethyl-pyrimidyl-5] -1-hydroxy-butyl(3)-amino)-propan-2-ol] | 0.011 | 4.6 | 128 | 1.1 | 1.38 | 5.2 |  |  |
|  |  | CCOCCOc1ccc(OCC(O)CNC(C)CC(O)c2cccnc2)cc1 (centres unmarked) [1-(p-Ethoxyethoxy-phenoxy)-3-(1-[pyridyl-3]-1-hydroxy-butyl(3)-amino)-propan-2-ol] | 0.009 | 3.8 | 296 | 2.7 | 2.76 | 10.1 |  |  |
|  |  | COCCCCOc1ccc(OCC(O)CNC(C)CC(O)c2cnc(C)nc2C)cc1 (centres unmarked) [1-(p-Methoxybutoxy-phenoxy)-3-(1-[2,4-dimethyl-pyrimidyl-5]-hydroxy-butyl(3)-amino)-propan-2-ol] | 0.089 | 37.4 | 176 | 1.6 | 16 | 58.8 |  |  |
|  |  | CCOCc1ccc(OCC(O)CNC(C)CC(O)c2cccnc2)cc1 (centres unmarked) [1-(p-Ethoxymethylene-phenoxy)-3-(1-[pyridyl-3]-1-hydroxy-butyl(3)-amino)-propan-2-ol] | 0.01 | 4.2 |  |  |  |  |  |  |
|  |  | CCNC(=O)Nc1ccc(OCC(O)CNC(C)CC(O)c2cnc(C)nc2C)cc1 (centres unmarked) [1-(p-Ethylureido-phenoxy)-3-(1-[2,4-dimethyl-pyrimidyl-5-]-1-hydroxy-butyl(3)-amino)-propan-2-ol] | 0.093 | 39.1 | 137 | 1.2 | 12.8 | 48.3 |  |  |
|  |  | CC(CC(O)c1cccnc1)NCC(O)COc1ccc(NC(=O)NC2CCCCC2)cc1 (centres unmarked) [1-(p-Cyclohexylureidophenoxy)-3-(1-hydroxy-1-pyridyl-(3)-butyl3-amino)-propan-2-ol] | 0.003 | 1.3 | 409 | 2.9 | 1.02 | 3.8 |  |  |
|  |  | CCOCc1ccc(OCC(O)CNC(C)CC(O)c2cnc(C)nc2C)cc1 (centres unmarked) [1-(p-Ethoxymethylene-phenoxy)-3-(1-[2,4-dimethyl-pyrimidyl-5]-1-hydroxy-butyl(3)-amino)-propan-2-ol] | 0.019 | 7.9 | 144 | 1.4 | 2.88 | 10.7 |  |  |
|  |  | CC(=O)Nc1ccc(OCC(O)CNC(C)C)cc1 (centres unmarked) [4-(2-Hydroxy-3-isopropylamino-propoxy)-acetanilide, reference compound] |  |  |  |  |  |  | 5.3 |  |
|  |  | Cc1ccc(C(O)CC(C)NCC(O)COc2ccc(OCCO)cc2)cn1 (centres unmarked) [1-(-p-[2-Hydroxy-ethoxy]-henoxy)-3-(1-[2-methyl-pyridyl-5]-1-hydroxy-butyl(3)-amino)-propan-2-ol] | 0.073 | 30.7 | 112 | 1 | 8.14 | 30.7 |  |  |
|  |  | Cc1ccc(C(O)CC(C)NCC(O)COc2ccc(NC(=O)NC3CCCCC3)cc2)cn1 (centres unmarked) [1-(p-Cyclohexylureido-phenoxy)-3-(1-[2-methyl-pyridyl-5]-1-hydroxy-butyl(3)-amino)-propan-2-ol] | 0.006 | 2.5 | 245 | 2.4 | 1.57 | 5.9 |  |  |
|  |  | CCNC(=O)Nc1ccc(OCC(O)CNC(C)CC(O)c2cccnc2)cc1 (centres unmarked) [1-(p-Ethylureido-phenoxy)-3-(1-[pyridyl-3]-1-hydroxy-butyl(3)-amino)-propan-2-ol] | 0.013 | 5.5 |  |  |  |  |  |  |
|  |  | Cc1ncc(C(O)CC(C)NCC(O)COc2ccc(NC(=O)NC(C)C)cc2)c(C)n1 (centres unmarked) [1-(p-Isopropylureido- -phenoxy)-3-(1-[2,4-dimethyl-pyrimidyl-5]-1-hydroxy-butyl(3)-amino)-propan-2-ol] | 0.022 | 9.2 | 124 | 1.1 | 2.71 | 10.2 |  |  |
| 6.94 | 7.7 | CCCOCCOc1ccc(OCC(O)CNC(C)CC(O)c2ccc(C)nc2)cc1 (centres unmarked) [1-(p-[2-n-propoxy-ethoxy]-phenoxy)-3-(1-[2-methyl-pyridyl-5]-1-hydroxy-butyl(3)-amino)-propan-2-ol] | 0.035 | 14.7 | 146 | 1.3 | 5.1 | 19.2 | 0.177 | 3.39 |
